Source: US20230406803A1, “TROPOLONE DERIVATIVES AND TAUTOMERS THEREOF FOR IRON REGULATION IN ANIMALS” (Kinesid Therapeutics, Inc, priority 2020, published 2023)

What was measured:
[1] = Human liver microsomal stability assay; type: in vitro ADME; settings: human liver microsomes
Source text: (§1) Further examples of useful assays include metabolic stability assays, such as but not limited to e.g., liver microsomal clearance assays which provide measurement such as, but not limited to e.g., liver microsomal clearance half-life (t1/2), liver microsomal intrinsic clearance (CLint), and the like. Such measurements are useful in assessing various characteristics of a subject compound, such as e.g., the availability of an intact compound to provide a pharmacological effect. A compound having a longer microsomal clearance half-life (t1/2), e.g., than a reference compound, will provide better exposure of the intact compound and greater availability to produce the relevant pharmacological effect. A compound having a less microsomal clearance, e.g., as measured by liver microsomal intrinsic clearance (CLint), will similarly result in greater exposure of the intact compound available for an increase in the relevant pharmacological effect, e.g., as compared to that of a reference compound with a higher liver microsomal intrinsic clearance (CLint). Other useful assays include in vitro hepatocyte metabolic stability assays.
(§2) Such assessments included human and mouse liver microsomal stability assays as well as 6-hour mouse PK studies.

[2] = Mouse liver microsomal stability assay; type: in vitro ADME; settings: mouse liver microsomes
Source text: as §1, §2

[3] = Ligand facilitated Fe(III) efflux from liposomes; type: biochemical; design: unit not given here; settings: efflux rate k at 10 μM ligand concentration; ferrozine absorbance 562 nm, 120 min kinetic read
Summary of the method: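 POPC/cholesterol liposomes loaded with Fe(III) citrate in MES/Tris pH 7.0, diluted to 1 mM phosphorus in ascorbate buffer with 1 mM ferrozine outside. Ligand at 1.25–40 µM; absorbance at 562 nm read every 60 s for 120 min. Efflux rate k fitted by single-phase association, averaged over triplicates, compared at 10 µM.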

CC(C)c1cccc(=O)c(O)c1 [hinokitiol, reference compound]
microsomal CLint ([1]; read-out: Human CLint): 120 µL/min/mg
half-life ([1]; read-out: Human t1/2): 11.6 min
microsomal CLint ([2]; read-out: Mouse CLint): 46.7 µL/min/mg
half-life ([2]; read-out: Mouse t1/2): 29.7 min
Liposome Fe transport kefflux at 10 μM [3]: 7.77
